Source: patent publication US8574551B2, “Compositions useful for reducing nephrotoxicity and methods of use thereof” (Verrow Pharmaceuticals, Inc., priority 2005, dated 2013)

Columns and labels:
[1] = MTX-captisol solubility: rate of precipitation of MTX at pH 5.0 in presence and absence of captisol; format: physicochemical; conditions: for Amount of MTX in solution 1:25 dilution: diluted sample, pH 5.0, MTX added 0.91 mg/ml; for conc. of MTX (molarity of mtx): pH 5.0, Concentration of MTX added 0.002M
Description: Solubility studies were performed to determine whether Captisol could prevent the precipitation of MTX over a time period greater than transit time of MTX through the kidney (i.e., less than 2 minutes). Each solution was acidified with HCl, centrifuged and aliquots of the supernatant removed as a function of time, and the concentration of MTX in solution was measured spectrophometrically.

kidney [2] = experiment: Renal pathology in EAE mice after MTX or MTX+Captisol; format: in vivo, C57BL6 mice; conditions: MTX 40 mg/kg single intravenous bolus, no Captisol
Description: Injection volume were between 100-120 μl. […] Leukovorin, the active metabolite of folic acid, is typically given with methotrexate in anti-cancer chemotherapy to help protect normal cells. Mice were scored daily for disease severity and then sacrificed on day 10 of disease. Brain, kidney and spleen were formalin fixed. […] For light microscopic investigation, kidneys were fixed in 10% buffered formalin and processed routinely for paraffin embedding. Tissue sections of 5 micron meter were stained with hematoxylin and eosine and examined under Nikon coolpix light microscope. The severity of total kidney damage was evaluated by a semiquantitative measurement of damage as described. Each tissue section of the kidney was assessed for degeneration of glomerular structure, glomerular crowding and congestion, dilation of bowman space, degeneration of proximal and distal tubules, and dilation of renal tubules, vascular congestion, and inflammatory cell infiltration. For glomerular atrophy, glomeruli that contained more than 20 nuclei were scored “0”, and those containing less than 10 nuclei were scored “4.” Intermediate stages were 1, 2 and 3. Other criterion was scored on a 0-3 scale: 0=none; 1=mild; 2=moderate; 3=severe. […]

kidney [3] = experiment: Methotrexate induced nephrotoxicity model in mice, HPβCD; format: in vivo, C57BL/6 mice; conditions: normal mice; MTX 80 mg/kg single IV injection alone; 24 hrs
Description: To determine the protective effect of other cyclodextrin molecules, 2-hydroxypropyl β-cyclodextrin (HPβCD) was evaluated. Female C57BL/6 mice were injected intravenously with a single dose of methotrexate 80 mg/kg, IV, or methotrexate+HPβCD, IV, at methotrexate to HPβCD molar ratios of 1:1 and 1:0.5. The animals were sacrificed after 24 hrs. The development of glomerular and tubulointerstitial injury after methotrexate and protection by methotrexate+HPβCD was evaluated by means of assessment of renal histology by light microscopy. Leukovorin was given 4 hrs and after 18 hrs. Urine was not alkalinized.
Paraffin sections of […] were cut and stained with H&E and periodic acid Schiff (PAS). They were examined by light microscopy and scored in a blinded fashion. Five arbitratary fields at 40× magnification in each sections was assessed for the parameters, and scored according to the criteria, set forth in Example 7.

kidney [4] = experiment: Histopathological changes in the kidney after single bolus intravenous MTX with or without captisol at different molar ratios; format: in vivo; conditions: normal mice, 48 hours
Description: A study of histopathological changes in the kidney after single bolus intravenous MTX with or without concurrent captisol at different molar ratios was performed.
MTX solutions were prepared as follows. Solution A (24 mg/ml (53 mM)) was prepared from stock solution of 25 mg/ml (Methotrexate from Bedford laboratories) in sterile PBS (total volume 6 mL). Solution B was prepared by diluting 3 ml of Solution A to 1:1.33 in PBS to obtain a working dilution of 18 mg/mL (39.6 mM), pH 7.4. Solution C was prepared by diluting 2 mL of solution A 1:2 to obtain a working dilution of 12 mg/mL (26.4 mM), pH 7.2.
MTX+Captisol solutions were prepared as follows. Solution D was made by adding 57.32 mg Captisol to an aliquot of 500 micro liter of solution A (molar ratio 1:1, neutral pH). […]
MTX and Captisol were administered to 8 groups of mice (Groups I-VIII; see Table 3) via tail vein by a single injection in a volume of 100-120 μL. […] Clinical symptoms, body weights were recorded. […]
Semi quantitative estimates of total kidney damage in mice treated with MTX 80 mg/kg, 120 mg/kg, and a combination of MTX+Captisol at MTX to Captisol molar ratio of 1:1 and 1:0.5, are shown in FIG. 4. […] Hematoxylin and eosin sections of paraffin embedded kidney were analyzed microscopically for extent of renal damage. Data is expressed as mean±SEM. […]

kidney [5] = experiment: Captisol-MTX time studies, kidney histopathology at 24 hrs, 48 hrs, 1 week; format: in vivo, mice
Description: For light microscopic investigation, kidneys were fixed in 10% buffered formalin and processed routinely for paraffin embedding. Tissue sections of 5 micron meter were stained with hematoxylin and eosine and examined under a Nikon coolpix light microscope, photography was done with a Nikon Coolpix camera. The severity of total kidney damage was evaluated by a semiquantitative measurement of damage as described below. Each tissue section of the kidney was assessed for degeneration of glomerular structure, glomerular crowding and congestion, dilation of bowman space, degeneration of proximal and distal tubules, and dilation of renal tubules, vascular congestion, and inflammatory cell infiltration. For glomerular atrophy, glomeruli that contained more than 20 nuclei were scored “0”, and those containing less than 10 nuclei were scored “4.” Intermediate stages were 1, 2 and 3. Other criterion was scored on a 0-3 scale: 0=none; 1=mild; 2=moderate; and 3=severe. The microscopic score of each tissue was calculated as the sum of the scores given to each criterion and at least 100 nephrons (glomeruli plus surrounding tubules) were analyzed per section. See, e.g., Bhat et al., PNAS (2003) 100(7); Sener et al., Cell Biol Toxicol (2006) 22:[…].

CN(Cc1cnc2nc(N)nc(N)c2n1)c1ccc(C(=O)N[C@@H](CCC(=O)O)C(=O)O)cc1 [MTX, N-[4-[[(2,4-diamino-6pteridinyl)methyl]methylamino]benzoyl]-L-glutamicacid]
Amount of MTX in solution 1:25 dilution ([1]; 5 min after adding acid): 3.449 µg/mL | Amount of MTX in solution 1:25 dilution ([1]; 10 min after adding acid): 2.509 µg/mL | Amount of MTX in solution 1:25 dilution ([1]; 15 min after adding acid): 3.177 µg/mL | Amount of MTX in solution 1:25 dilution ([1]; 20 min after adding acid): 3.844 µg/mL | Amount of MTX in solution 1:25 dilution ([1]; 30 min after adding acid): 3.807 µg/mL | Amount of MTX in solution 1:25 dilution ([1]; 40 min after adding acid): 3.3 µg/mL | Amount of MTX in solution 1:25 dilution ([1]; 50 min after adding acid): 3.412 µg/mL | Amount of MTX in solution 1:25 dilution ([1]; 60 min after adding acid): 3.906 µg/mL | conc. of MTX (molarity of mtx) ([1]; 5 min after adding acid): 189.7 µM | conc. of MTX (molarity of mtx) ([1]; 10 min after adding acid): 138 µM | conc. of MTX (molarity of mtx) ([1]; 15 min after adding acid): 174.7 µM | conc. of MTX (molarity of mtx) ([1]; 20 min after adding acid): 211.4 µM | conc. of MTX (molarity of mtx) ([1]; 30 min after adding acid): 209.4 µM | conc. of MTX (molarity of mtx) ([1]; 40 min after adding acid): 181.5 µM | conc. of MTX (molarity of mtx) ([1]; 50 min after adding acid): 187.6 µM | conc. of MTX (molarity of mtx) ([1]; 60 min after adding acid): 214.8 µM | kidney sections, morphological changes (kidney [2]): dilation of renal tubules and degeneration of proximal tubules | renal histology (kidney [3]): significant histopathological changes in the kidney | kidney histopathology (H&E) (kidney [4]; MTX 80 mg/kg iv bolus alone): dilation of tubules, degenerative changes in the tubules, hypercellularity in the glomerulus and atypical collection of interstitial cells and convulated tubules | kidney histopathology (H&E) (kidney [4]; MTX 120 mg/kg IV alone): glomerular atrophy, degeneration of basement membrane on bowman capsule, degenerative changes in the tubules, hypercellularity in the glomerulus and infiltration of mononuclear cells | kidney histopathology (H&E) (kidney [5]; MTX 160 mg/kg alone, 24 hours post injection): degeneration of glomerular structure and dilation of Bowman's space, degeneration of proximal and distal tubules and inflammatory cell infiltration | kidney histopathology (H&E) (kidney [5]; MTX 160 mg/kg i.v. alone, 48 hours post injection): degeneration of glomerular structure, dilation of Bowman's space, dilation of proximal and distal tubules, degeneration of proximal and distal tubules and inflammatory cell infiltration | kidney histopathology (H&E) (kidney [5]; MTX 160 mg/kg single i.v. bolus alone, 1 week): degeneration of proximal and distal tubules with occasional glomerular atrophy or crowding | kidney tissue histopathological changes (FIG. 5) (kidney [5]; normal mice, MTX 160 mg/kg single iv bolus, 24 and 48 hours): extensive histopathological changes
